US20010036955A1, “Method of inhibiting angiogenesis” (Genentech, Inc., priority 1998, published 2001)

Columns and labels:
[1] = tested on: VEGF-stimulated angiogenesis in rat cornea; test: Corneal angiogenesis assay (Hydron pellet with VEGF); type: in vivo, Sprague-Dawley rats
Protocol: A 1.5 mm incision was made approximately 1 mm from the center of the cornea of isoflurane-ketamine (60-80 mg/kg) xylazine (10-15 mg/kg) anesthetized Sprague-Dawley rats. Using a curved spatula, the incision was bluntly dissected through the stroma towards the outer canthus of the eye. A Hydron pellet […] containing VEGF (200 ng), sucralfate (100 μg) with or without (control) 15d-PGJ2 (10 μg/pellet) was inserted into the base of the pocket. After surgery, the eyes were coated with gentamicin ointment. Animals are observed at 24-48 hr for the occurrence of nonspecific inflammation and then daily thereafter. At day 6, the animals were euthanized and injected with FITC-dextran to allow for visualization of the vasculature. Corneal whole mounts were made of the enucleated eyes and analyzed for neovascular area using the computer assisted image analysis.

Flk/KDR mRNA = test: Real time RT-PCR (Taqman) assay in HUVEC; type: cell-based, human; settings: HUVEC in three dimensional collagen gels; VEGF, bFGF, PMA; 10:M 15d-PGJ2
Protocol: (§1) This technique has been used to quantitatively monitor mRNA expression and has been described in detail previously (Heid, C. A. et al., (1996) Genome Methods 6:986-994; Gerber, H. et al., (1997) J. Biol. Chem. 272:23659-23667). Total RNA was extracted from HUVEC cultured in three dimensional collagen gels or on collagen-coated flasks for various times in 1× basal medium consisting of M199 supplemented with 1%FBS, 1× ITS, 2 mM L-glutamine, 50 μg/ml ascorbic acid, 26.5 mM NaHCO3, 100 U/ml penicillin and 100 U/ml streptomycin supplemented with 40 ng/ml bFGF (basic fibroblast growth factor), 40 ng/ml VEGF and 80 nM PMA […]. […] The primers and probes used were as follows: […] forward primer 5′-[…]-3′ (SEQ ID NO: 7), reverse primer 5′-CACCATCGCGACCAGATG-3′ (SEQ ID NO: 8), and probe 5′-[…]-3′ (SEQ ID NO: 9); […] forward primer 5′-TGACCTGCGGCAACTGG-3′ (SEQ ID NO: 10), reverse primer 5′-[…]-3′ (SEQ ID NO: 11), and probe 5′-[…]-3′ (SEQ ID NO: 12); human PPARβ gene forward primer 5′-[…]-3′ (SEQ ID NO: 13), reverse primer 5′-[…]-3′ (SEQ ID NO: 14), and probe 5′-[…]-3′ (SEQ ID NO: 15); human Flk/KDR gene forward primer 5′-[…]-3′ (SEQ ID NO: 16), reverse primer 5′-[…]-3′ (SEQ ID NO: 17), and probe 5′-[…]-3′ (SEQ ID NO: 18); human Flt-1 gene forward primer 5′-[…]-3′ (SEQ ID NO: 19), reverse primer 5′-[…]-3′ (SEQ ID NO: 20), and probe 5′-[…]-3′ (SEQ ID NO: 21); human uPA gene forward primer 5′-[…]-3′ (SEQ ID NO: 22), reverse primer 5′-GCGCACACCTGCCCTC-3′ (SEQ ID NO: 23), and probe 5′-[…]-3′ (SEQ ID NO: 24); human PAI-1 gene forward primer 5′-TCGTCCAGCGGGATCTGA-3′ (SEQ ID NO: 25), reverse primer 5′-GTGCTCCGGAACAGCCTG-3′ (SEQ ID NO: 26), and probe 5′-[…]-3′ (SEQ ID NO: 27); human glyceraldehyde-3-phosphate dehydrogenase (GAPDH) gene forward 5′-GAAGGTGAAGGTCGGAGTC-3′ (SEQ ID NO: 28), reverse 5′-[…]-3′ (SEQ ID NO: 29), and probe 5′-[…]-3′ (SEQ ID NO: 30). Total RNA (100 ng) was added to a 50 μl RT-PCR reaction mixture according to the manufacturer's protocol (Roche Molecular Systems, Inc., Branchburg, N.J.). The thermal cycling conditions included 1 cycle at 48° C. for 30 min, 1 cycle at 95° C. for 10 min, 40 cycles at 95° C. for 15 s, at 60° C. for 1 min and finally hold at 25° C. for 2 min. Standard curves for expression of each gene were generated by serial dilution of the total RNA isolated from HUVEC. […] Therefore, the relative mRNA expression of each gene was normalized to the level of GAPDH in the same RNA preparation.

Flt-1 mRNA = test: Real time RT-PCR (Taqman) assay in HUVEC; type: cell-based, human; settings: HUVEC in three dimensional collagen gels; VEGF, bFGF, PMA; 10:M 15d-PGJ2
Protocol: as §1

PAI-1 mRNA = test: Real time RT-PCR (Taqman) assay in HUVEC; type: cell-based, human; settings: at 24 hr; HUVEC in three dimensional collagen gels; 10:M 15d-PGJ2
Protocol: as §1

uPA mRNA = test: Real time RT-PCR (Taqman) assay in HUVEC; type: cell-based, human; settings: at 4 hr; HUVEC in three dimensional collagen gels; 10:M 15d-PGJ2
Protocol: as §1

HUVEC tube formation = test: Endothelial tube assay of Example 7 (average tube length, 3-D type I collagen gels); type: cell-based, human; settings: 10 μM; 24 h; 3-D collagen gels
Protocol: Collagen gels were formed by mixing together ice-cold gelation solution (IOX M199, H2O, 0.53M NaHCO3, 200 mM L-glutamine, type I collagen, 0.1M NaOH, 100:27.2:50:10:750:62.5 by volume) and cells in 1× basal medium (see below) at a concentration of 3×10^6 cells/ml at a ratio of 4 volumes gelation solution: 1 volume of cells (18). After gelation at 37° C. for 30 min, the gels were overlaid with 1× basal medium consisting of M199 supplemented with […], 1× ITS, 2 mM L-glutamine, […] ascorbic acid, 26.5 mM NaHCO3, 100 U/ml penicillin and 100 U/ml streptomycin supplemented with 40 ng/ml bFGF, 40 ng/ml VEGF, 80 nM PMA or the combination of PMA (80 nM), bFGF and VEGF (40 ng/ml each). All drugs were added to the 1× basal medium immediately after gelation. To quantify tube formation, the average tube length was determined by measuring total tube length (long axis) in three consecutive layers of a low power (10×) field using Openlab software (Improvision Inc, England). Each layer was separated by 100 μm.

CCCCC/C=C/C=C1/C(=O)C=CC1C/C=C\CCCC(=O)O (stereo not shown) [15d-PGJ2, 15-deoxy-delta^12,14-PGJ2]
area of new vessels (FIG. 4C) ([1]; 200 ng/pellet VEGF and 10 μg/ml 15d-PGJ2, day 6 postimplantation, p<0.05, Mann-Whitney): significantly different from VEGF alone group
vessel length compared to VEGF only (positive) controls ([1]; Hydron pellet, 200 ng VEGF with 10 μg 15d-PGJ2, rat cornea): significant reduction
KDR mRNA induction by growth factors (Flk/KDR mRNA): inhibited the induction
Flt-1 mRNA induction by growth factors (Flt-1 mRNA): inhibited the induction
PAI-1 gene expression (PAI-1 mRNA): increased
uPA mRNA (uPA mRNA): reduced
PMA or PMA in combination with bFGF and VEGF induced HUVEC tube formation (HUVEC tube formation): blocked
